Results from patent US9169254B2, “Spiroimidazolone derivative” (Chugai Seiyaku Kabushiki Kaisha, priority 2009, dated 2015).
Where a name gives a salt, the structure may show the parent alone.

molecular target: T1, human PTH1 receptor (Homo sapiens, UniProt Q03431); test: In vitro cAMP signal activity in HKRK-B7 cells (LLC-PK1 cells overexpressing the human PTH1 receptor); assay type: cell-based; settings: HKRK-B7 cells; compound at 1×10^−3 M; cAMP produced as percentage of that produced by hPTH(1-34) at 100 nM
T1 sequence (Q03431 27-593): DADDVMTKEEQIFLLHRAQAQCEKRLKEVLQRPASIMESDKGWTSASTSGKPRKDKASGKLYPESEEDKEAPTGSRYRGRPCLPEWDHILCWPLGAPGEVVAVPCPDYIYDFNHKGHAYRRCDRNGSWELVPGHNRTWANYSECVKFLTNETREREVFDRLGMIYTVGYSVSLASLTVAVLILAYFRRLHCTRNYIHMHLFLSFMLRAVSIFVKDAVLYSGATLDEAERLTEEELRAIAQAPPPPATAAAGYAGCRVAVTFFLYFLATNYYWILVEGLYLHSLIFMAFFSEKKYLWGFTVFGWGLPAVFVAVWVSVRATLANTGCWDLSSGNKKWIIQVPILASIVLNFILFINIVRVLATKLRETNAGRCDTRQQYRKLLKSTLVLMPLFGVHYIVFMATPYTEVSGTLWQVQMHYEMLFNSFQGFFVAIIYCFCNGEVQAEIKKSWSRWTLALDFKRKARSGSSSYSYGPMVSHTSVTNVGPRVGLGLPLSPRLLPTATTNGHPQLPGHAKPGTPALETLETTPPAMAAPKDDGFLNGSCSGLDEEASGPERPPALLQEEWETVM

SMILES	cAMP production activity (%)
Cc1cc2ccc1CCS(=O)(=O)N1CCC3(CC1)N=C(NC3=O)c1cc(cc(C(F)(F)F)c1)OCCCCCCCCN(C)C2=O [Compound 1412]	7.2
Cc1cc(N(C)C(N)=O)cc(C)c1CCS(=O)(=O)N1CCC2(CC1)N=C(CCCCCCC(F)(F)F)NC2=O [Compound 1045, 1-(3,5-dimethyl-4-{2-[4-oxo-2-(7,7,7-trifluoro-heptyl)-1,3,8-triaza-spiro[4.5]dec-1-ene-8-sulfonyl]-ethyl}-phenyl)-1-methyl-urea]	106
Cc1cc(C(=O)N2CCC(OC[C@H](O)CO)CC2)cc(C)c1CCS(=O)(=O)N1CCC2(CC1)N=C(CCCCCCCCC(F)(F)F)NC2=O [Compound 1184, 8-(2-{4-[4-((R)-2,3-dihydroxy-propoxy)-piperidine-1-carbonyl]-2,6-dimethyl-phenyl}-ethanesulfonyl)-2-(9,9,9-trifluoro-nonyl)-1,3,8-triaza-spiro[4.5]dec-1-en-4-one]	108
Cc1cc(CN(C)C(N)=O)cc(C)c1/C=C/S(=O)(=O)N1CCC2(CC1)N=C(C1CCC(CCC(F)(F)F)CC1)NC2=O (stereo not drawn) [Compound 1300, 1-[3,5-Dimethyl-4-((E)-2-{4-oxo-2-[4-(3,3,3-trifluoro-propyl)-cyclohexyl]-1,3,8-triaza-spiro[4.5]dec-1-ene-8-sulfonyl}-vinyl)-benzyl]-1-methyl-urea]	81
[2H]C([2H])([2H])C([2H])([2H])Oc1ccc(C2=NC3(CCN(S(=O)(=O)/C=C/c4c(C)cc(C(=O)N5CCC(C)(O)CC5)cc4C)CC3)C(=O)N2)cc1C(F)(F)F [Compound 1221, 2-(4-[1,1,2,2,2-^2H5]ethoxy-3-trifluoromethyl-phenyl)-8-{(E)-2-[4-(4-hydroxy-4-methyl-piperidine-1-carbonyl)-2,6-dimethyl-phenyl]-ethenesulfonyl}-1,3,8-triaza-spiro[4.5]dec-1-en-4-one]	75
Cc1cc2cc(C)c1CCS(=O)(=O)N1CCC3(CC1)N=C(CCCC/C=C/CCCCCCCC(=O)N2C)NC3=O [Compound 1444]	12
Cc1cc(N2C(=O)CNC2=O)ccc1CCS(=O)(=O)N1CCC2(CC1)N=C([C@H]1CC[C@H](CC(F)(F)F)CC1)NC2=O [Compound 948, 3-[3-Methyl-4-(2-{4-oxo-2-[4-(2,2,2-trifluoro-ethyl)-cyclohexyl]-1,3,8-triaza-spiro[4.5]dec-1-ene-8-sulfonyl}-ethyl)-phenyl]-imidazolidine-2,4-dione]	68
Cc1cc(N2C(=O)CNC2=O)c(C)cc1/C=C/S(=O)(=O)N1CCC2(CC1)N=C(C1CCC(C)CC1)NC2=O (stereo not drawn) [Compound 581, 3-(2,5-dimethyl-4-{(E)-2-[2-(4-methyl-cyclohexyl)-4-oxo-1,3,8-triaza-spiro[4.5]dec-1-ene-8-sulfonyl]-vinyl}-phenyl)-imidazolidine-2,4-dione]	75
Cc1cc(C(=O)N2CCC(C)(O)CC2)cc(C)c1/C=C/S(=O)(=O)N1CCC2(CC1)N=C(c1cccc(COc3cccc(C(F)(F)F)c3)c1)NC2=O [Compound 1205, 8-{(E)-2-[4-(4-hydroxy-4-methyl-piperidine-1-carbonyl)-2,6-dimethyl-phenyl]-ethenesulfonyl}-2-[3-(3-trifluoromethyl-phenoxymethyl)-phenyl]-1,3,8-triaza-spiro[4.5]dec-1-en-4-one]	83
Cc1cc(N(C)C(=O)C(F)(F)F)cc(C)c1CCS(=O)(=O)N1CCC2(CC1)N=C(C1CC(C)(C)CC(C)(C)C1)NC2=O [Compound 933, N-(3,5-dimethyl-4-{2-[4-oxo-2-(3,3,5,5-tetramethyl-cyclohexyl)-1,3,8-triaza-spiro[4.5]dec-1-ene-8-sulfonyl]-ethyl}-phenyl)-2,2,2-trifluoro-N-methyl-acetamide]	60
Cc1cc2ccc1CCS(=O)(=O)N1CCC3(CC1)N=C(NC3=O)c1cc(cc(C(F)(F)F)c1)OCCCCCN(C)C2=O [Compound 1409]	13
O=C1NC(c2cccc(C(F)(F)F)c2)=NC12CCN(S(=O)(=O)c1ccc3ccccc3c1)CC2 [Compound 67, 8-(naphthalene-2-sulfonyl)-2-(3-trifluoromethyl-phenyl)-1,3,8-triaza-spiro[4.5]dec-1-en-4-one]	53
CC(=O)N(c1ccc(/C=C/S(=O)(=O)N2CCC3(CC2)N=C(C2CCCCC2)NC3=O)c(C)c1)C1CCCC1 [Compound 734, N-{4-[(E)-2-(2-Cyclohexyl-4-oxo-1,3,8-triaza-spiro[4.5]dec-1-ene-8-sulfonyl)-vinyl]-3-methyl-phenyl}-N-cyclopentyl-acetamide trifluoroacetate]	47
O=C1NC(C2CCCCC2)=NC12CCN(S(=O)(=O)CCc1ccc3[nH]ccc3c1)CC2 [Compound 269, 2-cyclohexyl-8-[2-(1H-indol-5-yl)-ethanesulfonyl]-1,3,8-triaza-spiro[4.5]dec-1-en-4-one]	43
Cc1cc(C(=O)N(C)C)ccc1CCS(=O)(=O)N1CCC2(CC1)N=C(COc1ccc(Cl)cc1)NC2=O [Compound 124, 4-{2-[2-(4-chloro-phenoxymethyl)-4-oxo-1,3,8-triaza-spiro[4.5]dec-1-ene-8-sulfonyl]-ethyl}-3,N,N-trimethyl-benzamide]	64
Cc1cc(CN2CCCC2=O)cc(C)c1CCS(=O)(=O)N1CCC2(CC1)N=C(C1CCC(CCC(F)(F)F)CC1)NC2=O (stereo not drawn) [Compound 776, 8-{2-[2,6-dimethyl-4-(2-oxo-pyrrolidin-1-ylmethyl)-phenyl]-ethanesulfonyl}-2-[4-(3,3,3-trifluoro-propyl)-cyclohexyl]-1,3,8-triaza-spiro[4.5]dec-1-en-4-one]	79
Cc1cc(CN(C)C(N)=O)cc(C)c1/C=C/S(=O)(=O)N1CCC2(CC1)N=C(C1CCC(C)CC1)NC2=O (stereo not drawn) [Compound 1301, 1-(3,5-dimethyl-4-{(E)-2-[2-(4-methyl-cyclohexyl)-4-oxo-1,3,8-triaza-spiro[4.5]dec-1-ene-8-sulfonyl]-vinyl}-benzyl)-1-methyl-urea]	49
Cc1cc(N(C)C(N)=O)cc(C)c1/C=C/S(=O)(=O)N1CCC2(CC1)N=C(CCCCCc1ccccc1)NC2=O.O=C(O)C(F)(F)F [Compound 1133, 1-(3,5-Dimethyl-4-{(E)-2-[4-oxo-2-(5-phenyl-pentyl)-1,3,8-triaza-spiro[4.5]dec-1-ene-8-sulfonyl]-vinyl}-phenyl)-1-methyl-urea trifluoroacetate]	113
Cc1cc(C(=O)N2CCC(O)CC2)cc(C)c1/C=C/[S@TB4](=O)(=O)N1CCC2(CC1)N=C(c1ccc3c(c1)OC(F)(F)O3)NC2=O [Compound 1160, 2-(2,2-difluoro-benzo[1,3]dioxol-5-yl)-8-{(E)-2-[4-(4-hydroxy-piperidine-1-carbonyl)-2,6-dimethyl-phenyl]-ethenesulfonyl}-1,3,8-triaza-spiro[4.5]dec-1-en-4-one]	84
Cl.[2H]C([2H])([2H])Nc1cc(C)c(/C=C/S(=O)(=O)N2CCC3(CC2)N=C(c2ccc(F)c(C(F)(F)F)c2)NC3=O)c(C)c1 [Compound 1288, 8-[(E)-2-(2,6-dimethyl-4-[1,1,1-^2H3]methylamino-phenyl)-ethenesulfonyl]-2-(4-fluoro-3-trifluoromethyl-phenyl)-1,3,8-triaza-spiro[4.5]dec-1-en-4-one hydrochloride]	54
O=C(CCCc1ccccc1)N1CCCC(C2=NC3(CCN(S(=O)(=O)CCc4cccc5ccccc45)CC3)C(=O)N2)C1 (stereo not drawn) [Compound 437, 8-(2-naphthalen-1-yl-ethanesulfonyl)-2-[1-(4-phenyl-butyryl)-piperidin-3-yl]-1,3,8-triaza-spiro[4.5]dec-1-en-4-one]	45
Cc1cc(N2C(=O)CNC2=O)cc(C)c1/C=C/S(=O)(=O)N1CCC2(CC1)N=C(c1ccc(F)c(C(F)(F)F)c1)NC2=O [Compound 636, 3-(4-{(E)-2-[2-(4-Fluoro-3-trifluoromethyl-phenyl)-4-oxo-1,3,8-triaza-spiro[4.5]dec-1-ene-8-sulfonyl]-vinyl}-3,5-dimethyl-phenyl)-imidazolidine-2,4-dione]	88
CC(=O)N(CCOCCF)c1cc(C)c(/C=C/S(=O)(=O)N2CCC3(CC2)N=C(C2CCC(CCC(F)(F)F)CC2)NC3=O)c(C)c1 (stereo not drawn) [Compound 551, N-[3,5-dimethyl-4-((E)-2-{4-oxo-2-[4-(3,3,3-trifluoro-propyl)-cyclohexyl]-1,3,8-triaza-spiro[4.5]dec-1-ene-8-sulfonyl}-vinyl)-phenyl]-N-[2-(2-fluoro-ethoxy)-ethyl]-acetamide]	92
Cc1cc(C(=O)N2CCC[C@H]2C(F)(F)F)ccc1CCS(=O)(=O)N1CCC2(CC1)N=C(c1cccc(C(F)(F)F)c1)NC2=O [Compound 354, 8-{2-[2-methyl-4-((S)-2-trifluoromethyl-pyrrolidine-1-carbonyl)-phenyl]-ethanesulfonyl}-2-(3-trifluoromethyl-phenyl)-1,3,8-triaza-spiro[4.5]dec-1-en-4-one]	27
